Test results as given in patent publication EP4803074A1, “PHARMACEUTICAL COMPOSITION OF PYRIMIDINE DERIVATIVE” (TYK Medicines, Inc., priority 2023, dated 2025).
Read-outs that look alike come from different tables or passages of the source.

Assays:
[1] = Single-dose pharmacokinetic study, fasting vs high-fat meal; conditions: human, in vivo, po, 80 mg, healthy volunteers
[2] = Impurity B content of process samples on storage at room temperature (HPLC); assay type: physicochemical; conditions: 20 days (Laboratory placement)
From the text: Impurity B (Impurity RRT1.5, i.e., relative retention time 1.5) is a degradation impurity identified in the stability studies of this formulation and is a specific impurity that requires close monitoring. […] Therefore, the study of Impurity B content is also a key point of the invention. The method for determining the content of Impurity B is as follows: [table] [table] • Heptafluorobutyric acid: Chromatographic grade Water: Ultrapure water Ammonia solution: Chromatographic grade or analytical grade • Acetonitrile: Chromatographic grade Methanol: Chromatographic grade • TY-9591 Reference Standard: In-house preparation or commercially purchased • 3. […]

pH-dependent solubility = assay type: physicochemical; conditions: result in words
From the text: (§1) Drugs can be absorbed at many different sites along the gastrointestinal tract (including the stomach, duodenum, jejunum, ileum, and colon) following oral administration. Due to the significant pH gradient between the stomach (pH 1 - 3.5) and the small intestine (pH 4 - 8), the pH varies at each absorption site. […] In such cases, where the solubility of a drug varies with pH-and specifically when solubility is highest at acidic pH levels-a problem arises: the drug may precipitate out of solution as it passes through the gastrointestinal tract, but the drug should remain in solution to be absorbed, such precipitation may affect the extent and rate of absorption.

Permeability = assay type: in vitro ADME; conditions: result in words
From the text: as §1

[3] = After high-fat meal, single oral dose of 80 mg of Tablet 22
[4] = Fasting, single oral dose of 80 mg of Tablet 22

[2H]C([2H])([2H])n1cc(-c2ccnc(Nc3cc(NC(=O)C=C)c(N(C)CCN(C)C)cc3OC)n2)c2ccccc21 [TY-9591, N-(2-((2-(dimethylamino)ethyl) (methyl)amine)-4-methoxy-5-((4-(1-deuteriatedmethyl-1H-indol-3-yl)pyrimidin-2-yl)amine)phenyl)acrylamide]
AUC(0-inf) [1, 3]: 4350 ng·h/mL | Cmax [1, 3]: 69 ng/mL | Tmax [1, 3]: 5.95 h | half-life [1, 3]: 48.6 h | AUC(0-t) ([1]; After high-fat meal, single oral dose of 80 mg of Tablet 22, read-out: AUC0-72h): 2670 ng·h/mL | AUC(0-t) ([1]; After high-fat meal, single oral dose of 80 mg of Tablet 22, read-out: AUC0-t): 4300 ng·h/mL | Tmax ([1]; Fasting, single oral dose of 80 mg of Tablet 22 (40 mg*2 tablets)): 5.99 h | AUC(0-inf) [1, 4]: 3930 ng·h/mL | Cmax [1, 4]: 67.8 ng/mL | half-life [1, 4]: 51.2 h | AUC(0-t) ([1]; Fasting, single oral dose of 80 mg of Tablet 22, read-out: AUC0-72h): 2330 ng·h/mL | AUC(0-t) ([1]; Fasting, single oral dose of 80 mg of Tablet 22, read-out: AUC0-t): 3880 ng·h/mL | Impurity B/% [2]: 0.13% | solubility at pH 1 (hydrochloric acid) compared to pH 6.8 (sodium hydroxide-sodium dihydrogen phosphate buffer, 25 mM) (pH-dependent solubility): higher solubility | permeability (Permeability): moderate permeability
